Results published in paper PMC7719179, “Small molecule inhibition of Dynamin-dependent endocytosis targets multiple niche signals and impairs leukemia stem cells” (Nature Communications, 2020).
“And” between values parts separate entries of the source, which are not always exact repeats. Equal values may be shown once. Read-outs that look alike come from different tables or passages of the source.

Key:
[1] = system: pStat5, Hes1, p-Erk, p-p38, p-S6, p-Akt in Lmo2^Tg DN3a cells; experiment: Growth factor-mediated signalling effectors in co-cultured Lmo2^Tg DN3a cells (flow cytometry); type: cell-based, mouse; details: Supplementary Figure 2c; unstimulated and vehicle controls in the same table
Procedure: (§1) Phosphoflow analysis was performed as previously described. Briefly, 2 × 10^6 cells stained for surface markers were subsequently resuspended into PBS 1× + 4% v/v paraformaldehyde and incubated for 10 min at 4 °C for fixation. Fixed cells were washed twice using PBS 1×, then resuspended in pre-chilled at −20 °C Perm Buffer III (BD Pharmingen) and incubated 30 min at 4 °C for permeabilization. Cells were washed twice using PBS 1× and incubated overnight at 4 °C in PBS 1× + 2% v/v fetal calf serum (FCS) with Cell Signalling purified antibodies (Genesearch Pty Ltd, Arundel QLD, Australia) against pSTAT5 (Tyr694; #9359), phospho-p38 MAPK (Thr180/Tyr182; #4511), phospho-p44/42 (Erk1/2; #9102), phospho-S6 (Ser235/236; #4856) and phospho-Akt (Ser473; #9271) or isotype control. For intracellular HES1 detection, cells stained for surface markers were subsequently fixed and permeabilized using the BD Cytofix/Cytoperm^TM Kit and incubated overnight at 4 °C in PBS 1× + 2% v/v FCS with a purified antibody against HES1 (D6PU; #11988, Cell Signalling) or isotype control. After staining with primary antibodies for phosphoflow or intracellular detection, cells were incubated in permeabilization buffer with donkey Alexa Fluor 488-conjugated anti-rabbit secondary antibody (A-21206, lot #1910751, Molecular Probes, Invitrogen) or goat Alexa Fluor 546-conjugated anti-rabbit secondary antibody (A-11035, lot #1904467, Molecular Probes, Invitrogen) for 1 h on ice, and washed twice in PBS 1×. Fluorescence-activated cell sorting (FACS) analysis was performed using LSRII and LSR Fortessa cytometers, following the gating strategies described in Supplementary Fig. 11. Cell sorting was performed with a FACSAria or BD Influx.

DN3a thymocytes = experiment: Relative viability and LC50 on DN3a thymocytes of WT, Lmo2^Tg, Lmo2^Tg;STAT5-CA^Tg and Lmo2^Tg;N1-ICD^Tg mice, 48 h
Procedure: Pre-leukemic and leukemic thymocytes were purified by flow cytometry and co-cultured on GFP-positive OP9 and OP9-DL1 stromal cell lines, as described previously. Thymocytes were co-cultured in reconstituted alpha-MEM medium (#12318, Gibco, Grand Island NY, USA) supplemented with 20% FCS (#12318), HEPES 10 mM (#15630-080), sodium pyruvate 1 mM (#11360-070), β-mercaptoethanol 55 μM (#21985-023), Glutamax 2 mM (#15750-060), 1% Penicillin/Streptomycin (#15140-122), 5 ng/mL rmFLT-3 ligand (#250-31 L, Pepro Tech), 5 ng/mL rmIL-7 (#217-17, Pepro Tech) and 25 ng/mL rmSCF (#250-03, Pepro Tech). After 48 h of co-culture, thymocytes were counted and analysed by FACS. […]
viability of wild-type (WT), Lmo2 Tg, Lmo2Tg;STAT5-CA Tg and Lmo2Tg;N1-ICD Tg DN3a thymocytes […]
normalized to cells treated with vehicle (%DMSO). Mean ± SEM of n=4 biological replicates. b, […]
thymocytes from 6-week old wild-type (WT), Lmo2 Tg, Lmo2Tg;STAT5-CATg and Lmo2Tg ;N1-ICD Tg mice. Mean ± SD of n=4 biological replicates are shown. 2-way ANOVA with Tukey’s correction test; […]
(1 picture or pasted object on this page, not shown here)
*P<0.05, *** P<0.001 compared to WT; #P<0.05, ##P<0.01, ###P<0.001 compared to L mo2Tg. c, Levels of pStat5 (left) after stimulation with IL-7 , as well as Hes1 expression (right) after co-culture on OP9- […]
(0.2 µM), Ruxolitinib (0.2 µM) and DAPT (0.1 µM). Unstimulated cells were used as negative controls (dashed line). Student’s t -test, ** P<0.01, *** P<0.001 compared to unstimulated cells. MFI ± SEM, 1-way ANOVA with Tukey’s correction test; **P<0.01, *** P<0.001 compared to vehicle. d, Clonogenic assay of normal murine hematopoietic stem and progenitor cells (HSPCs) cultured in the presence […]
± SD, Student’s t -test ( n=4) **P<0.01 compared to vehicle. e, Relative viability of wild-type (WT), […]
2 (0.2 µM), Ruxolitinib (0.2 µM) and DAPT (0.1 µM) for 48 hours. Viability was normalized to cells treated with vehicle (%DMSO, which was reported as 100). Mean ± SEM, 2-way ANOVA with Tukey’s correction test, **P<0.01, *** P<0.001 compared to vehicle.

[2] = system: pStat5 in leukemic DN3a cells from primary Lmo2^Tg T-ALL; experiment: IL-7-induced pStat5 in leukemic DN3a cells from primary Lmo2^Tg T-ALL; type: cell-based, mouse
Procedure: as §1
For in vitro IL-7 stimulation assays, cells were starved in serum-free DMEM at 37 °C, then incubated with either vehicle or Dynole 34-2 or Ruxolitinib (INCB018424; #S1378, Selleckchem), or DAPT (GSI-IX; #S2215, Selleckchem) resuspended in DMSO for 1 h. Thymocytes were subsequently stimulated with 25 ng/mL IL-7 at 37 °C for 20 min and washed twice using cold PBS 1×. Cells were incubated with 25 ng/mL Rat IgG (Sigma-Aldrich Pty Ltd, Castle Hill NSW, Australia) and with a PE-conjugated antibody for detection of IL-7R (CD127) for 1 h on ice, as described in the FACS analysis section. PE-conjugated isotype was used as negative control. Cells were washed twice, fixed and phosphoflow analysis performed as described in the FACS analysis section. The analysis was performed in triplicate and the mean fluorescence intensity (MFI) observed without stimulation was reported as 100%.

[3] = leukemic DN3a cells of TALL249, IL-7 stimulation
[4] = leukemic DN3a cells of TALL257, IL-7 stimulation
[5] = leukemic DN3a cells of TALL273, IL-7 stimulation
[6] = leukemic DN3a cells of TALL582, IL-7 stimulation
[7] = leukemic DN3a cells of TALL588, IL-7 stimulation
[8] = leukemic DN3a cells of TALL742, IL-7 stimulation

N#CC[C@H](C1CCCC1)n1cc(-c2ncnc3[nH]ccc23)cn1 [Ruxolitinib]
Hes1 (MFI) [1]: 1340 MFI and 1445 MFI and 1491 MFI
fold resistance of Lmo2^Tg;STAT5-CA^Tg DN3a thymocytes vs Lmo2^Tg DN3a cells (DN3a thymocytes; LC50 comparison, 48 h): 5.3 fold
Survival (% DMSO) (DN3a thymocytes; Lmo2Tg;STAT5-CATg): 69.32 % DMSO and 78.95 % DMSO and 73.54 % DMSO
viability at 40 µM (DN3a thymocytes; Mus musculus, Thymocyte, read-out: Relative % viable cells, Lmo2Tg DN3a thymocytes, dose 0.04 mM (so in the source)): 88.8%
viability at 40 µM (DN3a thymocytes; Mus musculus, Thymocyte, read-out: Relative % viable cells, Lmo2Tg;STAT5-CATg DN3a thymocytes, dose 0.04 mM (so in the source)): 95.5%
viability at 200 µM (DN3a thymocytes; Mus musculus, Thymocyte, read-out: Relative % viable cells, Lmo2Tg;STAT5-CATg DN3a thymocytes, dose 0.2 mM (so in the source)): 69.3%
Survival (% DMSO) (DN3a thymocytes; WT): 39.65 % DMSO and 53.08 % DMSO and 37.17 % DMSO
pStat5 (MFI) [2, 3]: 2437 MFI
pStat5, FOLD over unstimulated [2, 3]: 0.61 fold
pStat5 (MFI) [2, 4]: 2111 MFI
pStat5, FOLD over unstimulated [2, 4]: 1.36 fold
pStat5 (MFI) [2, 5]: 2300 MFI
pStat5, FOLD over unstimulated [2, 5]: 1.02 fold
pStat5 (MFI) [2, 6]: 33429 MFI
pStat5, FOLD over unstimulated [2, 6]: 0.88 fold
pStat5 (MFI) [2, 7]: 3772 MFI
pStat5, FOLD over unstimulated [2, 7]: 1.47 fold
pStat5 (MFI) [2, 8]: 5460 MFI
pStat5, FOLD over unstimulated [2, 8]: 0.96 fold
